Source: US20230085307A1, “PYRIDAZINONE COMPOUND AND HERBICIDE” (NISSAN CHEMICAL CORPORATION, priority 2019, published 2023)

Legend:
redroot pigweed = assay: Test Example 5: herbicidal effect by foliage application, plastic box (Table 20, symbol N); assay type: in vivo, redroot pigweed (Amaranthus retroflexus); conditions: 320 g/ha, evaluated three weeks after application; for herbicidal effect on N: redroot pigweed (evaluation grade 0-5): foliage application after 14-day growth
In short: (§1)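 Sow seeds spot-wise in sterilized diluvial soil; cover with ~1.5 cm soil. Grow 14 days in greenhouse, 25° C. to 30° C. Spray foliage with emulsion diluted to predetermined amount. Rate effect after 3 weeks.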

Japanese bulrush [1] = assay: Test Example 2: herbicidal activity, application during weed generation under submerged conditions (Table 17, symbol B); assay type: in vivo, Japanese bulrush (Schoenoplectus juncoides); conditions: AAH 320 g/ha; application during weed generation, submerged conditions
In short: (§2)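 3-wk visual-criteria score after one water-surface dose. Emulsion formulation, water-diluted to set rate; applied at 1–2 leaf stage; alluvial soil, 4 cm standing water; seeds co-sown; greenhouse 25–30° C.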

barnyard grass [2] = assay: Test Example 5: herbicidal effect by foliage application, plastic box (Table 20, symbol H); assay type: in vivo, barnyard grass (Echinochloa crus-galli); conditions: 320 g/ha, evaluated three weeks after application; for herbicidal effect on H: barnyard grass (evaluation grade 0-5): foliage application after 14-day growth
In short: as §1

Japanese bulrush [3] = assay: Test Example 1: herbicidal activity, application before weed generation under submerged conditions (Table 16, symbol B); assay type: in vivo, Japanese bulrush (Schoenoplectus juncoides); conditions: for Herbicidal effect, B: Japanese bulrush: amount of applied herbicide 320 g/ha
In short: (§3)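 Alluvial soil was flooded to 4 cm depth, weed seeds were sown mixed and 2.5-leaf rice seedlings were transplanted. On sowing day, the compound's emulsion, diluted in water to a set dose, was applied to the water surface. Plants grew at 25–30 °C and were scored 0–5 after three weeks.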

rice flat sedge = assay: Test Example 3: herbicidal effect by foliage application, Wagner pot (Table 18, symbol E); assay type: in vivo, rice flat sedge (Cyperus iria); conditions: for herbicidal effect on rice flat sedge (E): 320 g/ha
In short: (§4)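 Plants were sown in alluvial soil held under 0.1–0.5 cm standing water and grown 14 days in a greenhouse at 25–30 °C. An emulsifiable formulation, water-diluted to the set dose, was then sprayed onto the foliage, and effects were scored three weeks later using previously defined criteria.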

barnyard grass [4] = assay: Test Example 3: herbicidal effect by foliage application, Wagner pot (Table 18, symbol H); assay type: in vivo, barnyard grass (Echinochloa crus-galli); conditions: for herbicidal effect on barnyard grass (H): 320 g/ha
In short: as §4

persian speedwell = assay: Test Example 5: herbicidal effect by foliage application, plastic box (Table 20, symbol R); assay type: in vivo, Persian speedwell (Veronica persica); conditions: 320 g/ha, evaluated three weeks after application; for herbicidal effect on R: persian speedwell (evaluation grade 0-5): foliage application after 14-day growth
In short: as §1

windgrass = assay: Test Example 5: herbicidal effect by foliage application, plastic box (Table 20, symbol L); assay type: in vivo, windgrass (Apera spica-venti); conditions: 320 g/ha, evaluated three weeks after application; for herbicidal effect on L: windgrass (evaluation grade 0-5): foliage application after 14-day growth
In short: as §1

Italian ryegrass = assay: Test Example 5: herbicidal effect by foliage application, plastic box (Table 20, symbol K); assay type: in vivo, Italian ryegrass (Lolium multiflorum); conditions: 320 g/ha, evaluated three weeks after application; for herbicidal effect on K: Italian ryegrass (evaluation grade 0-5): foliage application after 14-day growth
In short: as §1

chickweed = assay: Test Example 5: herbicidal effect by foliage application, plastic box (Table 20, symbol P); assay type: in vivo, common chickweed (Stellaria media); conditions: 320 g/ha, evaluated three weeks after application; for herbicidal effect on P: chickweed (evaluation grade 0-5): foliage application after 14-day growth
In short: as §1

oval-leafed pondweed [5] = assay: Test Example 1: herbicidal activity, application before weed generation under submerged conditions (Table 16, symbol C); assay type: in vivo, oval-leafed pondweed (Monochoria vaginalis); conditions: for Herbicidal effect, C: oval-leafed pondweed: amount of applied herbicide 320 g/ha
In short: as §3

southern crabgrass = assay: Test Example 5: herbicidal effect by foliage application, plastic box (Table 20, symbol F); assay type: in vivo, southern crabgrass (Digitaria ciliaris); conditions: 320 g/ha, evaluated three weeks after application; for herbicidal effect on F: southern crabgrass (evaluation grade 0-5): foliage application after 14-day growth
In short: as §1

oval-leafed pondweed [6] = assay: Test Example 2: herbicidal activity, application during weed generation under submerged conditions (Table 17, symbol C); assay type: in vivo, oval-leafed pondweed (Monochoria vaginalis); conditions: AAH 320 g/ha; application during weed generation, submerged conditions
In short: as §2

late watergrass [7] = assay: Test Example 2: herbicidal activity, application during weed generation under submerged conditions (Table 17, symbol A); assay type: in vivo, late watergrass (Echinochloa oryzicola); conditions: AAH 320 g/ha; application during weed generation, submerged conditions
In short: as §2

wild oat = assay: Test Example 5: herbicidal effect by foliage application, plastic box (Table 20, symbol I); assay type: in vivo, wild oat (Avena fatua); conditions: 320 g/ha, evaluated three weeks after application; for herbicidal effect on I: wild oat (evaluation grade 0-5): foliage application after 14-day growth
In short: as §1

blackgrass = assay: Test Example 5: herbicidal effect by foliage application, plastic box (Table 20, symbol J); assay type: in vivo, blackgrass (Alopecurus myosuroides); conditions: 320 g/ha, evaluated three weeks after application; for herbicidal effect on J: blackgrass (evaluation grade 0-5): foliage application after 14-day growth
In short: as §1

velvetleaf = assay: Test Example 5: herbicidal effect by foliage application, plastic box (Table 20, symbol M); assay type: in vivo, velvetleaf (Abutilon theophrasti); conditions: 320 g/ha, evaluated three weeks after application; for herbicidal effect on M: velvetleaf (evaluation grade 0-5): foliage application after 14-day growth
In short: as §1

late watergrass [8] = assay: Test Example 1: herbicidal activity, application before weed generation under submerged conditions (Table 16, symbol A); assay type: in vivo, late watergrass (Echinochloa oryzicola); conditions: for Herbicidal effect, A: late watergrass: amount of applied herbicide 320 g/ha
In short: as §3

green foxtail = assay: Test Example 5: herbicidal effect by foliage application, plastic box (Table 20, symbol G); assay type: in vivo, green foxtail (Setaria viridis); conditions: 320 g/ha, evaluated three weeks after application; for herbicidal effect on G: green foxtail (evaluation grade 0-5): foliage application after 14-day growth
In short: as §1

Chinese sprangletop = assay: Test Example 3: herbicidal effect by foliage application, Wagner pot (Table 18, symbol D); assay type: in vivo, chinese sprangletop (Leptochloa chinensis); conditions: for herbicidal effect on Chinese sprangletop (D): 320 g/ha
In short: as §4

lambsquarters = assay: Test Example 5: herbicidal effect by foliage application, plastic box (Table 20, symbol O); assay type: in vivo, lambsquarters (Chenopodium album); conditions: 320 g/ha, evaluated three weeks after application; for herbicidal effect on O: lambsquarters (evaluation grade 0-5): foliage application after 14-day growth
In short: as §1

[9] = amount of applied herbicide 320 g/ha

Row | SMILES | herbicidal effect rating, B: Japanese bulrush (Japanese bulrush [1]) | herbicidal effect rating, C: oval-leafed pondweed (oval-leafed pondweed [6]) | herbicidal effect rating, A: late watergrass (late watergrass [7]) | herbicidal effect on N: redroot pigweed (evaluation grade 0-5) (redroot pigweed) | herbicidal effect on H: barnyard grass (evaluation grade 0-5) (barnyard grass [2]) | Herbicidal effect, B: Japanese bulrush (Japanese bulrush [3]) | herbicidal effect on rice flat sedge (E) (rice flat sedge) | herbicidal effect on barnyard grass (H) (barnyard grass [4]) | herbicidal effect on R: persian speedwell (evaluation grade 0-5) (persian speedwell) | herbicidal effect on L: windgrass (evaluation grade 0-5) (windgrass) | herbicidal effect on K: Italian ryegrass (evaluation grade 0-5) (Italian ryegrass) | herbicidal effect on P: chickweed (evaluation grade 0-5) (chickweed) | Herbicidal effect, C: oval-leafed pondweed (oval-leafed pondweed [5]) | herbicidal effect on F: southern crabgrass (evaluation grade 0-5) (southern crabgrass) | herbicidal effect on I: wild oat (evaluation grade 0-5) (wild oat) | herbicidal effect on J: blackgrass (evaluation grade 0-5) (blackgrass) | herbicidal effect on M: velvetleaf (evaluation grade 0-5) (velvetleaf) | Herbicidal effect, A: late watergrass (late watergrass [8]) | herbicidal effect on G: green foxtail (evaluation grade 0-5) (green foxtail) | herbicidal effect on Chinese sprangletop (D) (Chinese sprangletop) | further results
1 | Cc1nn(C)c(=O)c(-c2c(-c3ccc(C(=O)O)cc3)sc3ccc(Cl)cc23)c1O [2-113] | 0 (Herbicidal rate of 5% or less (almost no effect)) | 0 (Herbicidal rate of 5% or less (almost no effect)) | 2 (Herbicidal rate of 20% or more and less than 40%) |  |  |  |  |  |  |  |  |  |  |  |  |  |  |  |  |  | herbicidal effect on N: redroot pigweed (redroot pigweed; foliage application): 0 (Herbicidal rate of 5% or less (almost no effect)); herbicidal effect on H: barnyard grass (barnyard grass [2]; foliage application): 0 (Herbicidal rate of 5% or less (almost no effect)); Herbicidal effect on B: Japanese bulrush (grade 0-5) (Japanese bulrush [3]; 320 g/ha applied herbicide): 0 (Herbicidal rate of 5% or less (almost no effect)); herbicidal effect on E: rice flat sedge (rice flat sedge; [9]): 0 (Herbicidal rate of 5% or less (almost no effect)); herbicidal effect on H: barnyard grass (barnyard grass [4]; [9]): 3 (Herbicidal rate of 40% or more and less than 70%); herbicidal effect on R: persian speedwell (persian speedwell; foliage application): 0 (Herbicidal rate of 5% or less (almost no effect)); herbicidal effect on L: windgrass (windgrass; foliage application): 0 (Herbicidal rate of 5% or less (almost no effect)); herbicidal effect on K: Italian ryegrass (Italian ryegrass; foliage application): 0 (Herbicidal rate of 5% or less (almost no effect)); herbicidal effect on P: chickweed (chickweed; foliage application): 0 (Herbicidal rate of 5% or less (almost no effect)); Herbicidal effect on C: oval-leafed pondweed (grade 0-5) (oval-leafed pondweed [5]; 320 g/ha applied herbicide): 0 (Herbicidal rate of 5% or less (almost no effect)); herbicidal effect on F: southern crabgrass (southern crabgrass; foliage application): 0 (Herbicidal rate of 5% or less (almost no effect)); herbicidal effect on I: wild oat (wild oat; foliage application): 0 (Herbicidal rate of 5% or less (almost no effect)); herbicidal effect on J: blackgrass (blackgrass; foliage application): 0 (Herbicidal rate of 5% or less (almost no effect)); herbicidal effect on M: velvetleaf (velvetleaf; foliage application): 0 (Herbicidal rate of 5% or less (almost no effect)); Herbicidal effect on A: late watergrass (grade 0-5) (late watergrass [8]; 320 g/ha applied herbicide): 3 (Herbicidal rate of 40% or more and less than 70%); herbicidal effect on G: green foxtail (green foxtail; foliage application): 0 (Herbicidal rate of 5% or less (almost no effect)); herbicidal effect on D: Chinese sprangletop (Chinese sprangletop; [9]): 1 (Herbicidal rate of 5% or more and less than 20%); herbicidal effect on O: lambsquarters (lambsquarters; foliage application): 0 (Herbicidal rate of 5% or less (almost no effect))
2 | Cc1nn(C)c(=O)c(-c2c(-c3ccc(C(F)(F)F)cc3)sc3cc(Cl)ccc23)c1O [3-145] | 2 (Herbicidal rate of 20% or more and less than 40%) | 0 (Herbicidal rate of 5% or less (almost no effect)) | 3 (Herbicidal rate of 40% or more and less than 70%) | 3 (Herbicidal rate of 40% or more and less than 70%) | 0 (Herbicidal rate of 5% or less (almost no effect)) | 2 (Herbicidal rate of 20% or more and less than 40%) | 4 (Herbicidal rate of 70% or more and less than 90%) | 3 (Herbicidal rate of 40% or more and less than 70%) | 0 (Herbicidal rate of 5% or less (almost no effect)) | 5 (Herbicidal rate of 90% or more (almost completely withered)) | 0 (Herbicidal rate of 5% or less (almost no effect)) | 0 (Herbicidal rate of 5% or less (almost no effect)) | 0 (Herbicidal rate of 5% or less (almost no effect)) | 0 (Herbicidal rate of 5% or less (almost no effect)) | 0 (Herbicidal rate of 5% or less (almost no effect)) | 0 (Herbicidal rate of 5% or less (almost no effect)) | 3 (Herbicidal rate of 40% or more and less than 70%) | 3 (Herbicidal rate of 40% or more and less than 70%) | 2 (Herbicidal rate of 20% or more and less than 40%) | 5 (Herbicidal rate of 90% or more (almost completely withered)) | herbicidal effect on O: lambsquarters (evaluation grade 0-5) (lambsquarters): 3 (Herbicidal rate of 40% or more and less than 70%)
3 | CCCC(=O)Oc1c(C)nn(C)c(=O)c1-c1c(-c2ccc(C)cc2)sc2c(Cl)cccc12 [4-020] | 3 (Herbicidal rate of 40% or more and less than 70%) | 0 (Herbicidal rate of 5% or less (almost no effect)) | 0 (Herbicidal rate of 5% or less (almost no effect)) | 5 (Herbicidal rate of 90% or more (almost completely withered)) | 0 (Herbicidal rate of 5% or less (almost no effect)) | 3 (Herbicidal rate of 40% or more and less than 70%) | 5 (Herbicidal rate of 90% or more (almost completely withered)) | 4 (Herbicidal rate of 70% or more and less than 90%) | 5 (Herbicidal rate of 90% or more (almost completely withered)) | 5 (Herbicidal rate of 90% or more (almost completely withered)) | 4 (Herbicidal rate of 70% or more and less than 90%) | 5 (Herbicidal rate of 90% or more (almost completely withered)) | 0 (Herbicidal rate of 5% or less (almost no effect)) | 0 (Herbicidal rate of 5% or less (almost no effect)) | 3 (Herbicidal rate of 40% or more and less than 70%) | 0 (Herbicidal rate of 5% or less (almost no effect)) | 5 (Herbicidal rate of 90% or more (almost completely withered)) | 4 (Herbicidal rate of 70% or more and less than 90%) | 0 (Herbicidal rate of 5% or less (almost no effect)) | 5 (Herbicidal rate of 90% or more (almost completely withered)) | herbicidal effect on O: lambsquarters (evaluation grade 0-5) (lambsquarters): 2 (Herbicidal rate of 20% or more and less than 40%)
